Source: article PMC6257627, “Target Validation and Identification of Novel Boronate Inhibitors of the Plasmodium falciparum Proteasome” (Journal of Medicinal Chemistry, 2018)
Where two headings read alike, the source gives them in different places.

How the values were obtained:
[1] = tested on: P. falciparum 3D7 parasites; test: Standard 72 h antiplasmodial viability assay, 3D7; assay type: cell-based, Plasmodium falciparum; conditions: for Pf3D7 LD50 (72 h): sorbitol-treated ring stage, viability in next cycle (~72 h); for Pf3D7 LD50 (72-h): supplement CSV
Method: P. falciparum parasites used in this study were propagated in O+ human erythrocytes (Australian Red Cross Blood Service) in RPMI-1640, supplemented with GlutaMAX, 25 mM HEPES (Thermo Fisher Scientific), 5% (v/v) human serum (Australian Red Cross Blood Service), 0.25% (w/v) AlbuMAX II (Thermo Fisher Scientific), 10 μM D-glucose, 22 μg/mL gentamycin (Sigma-Aldrich), and 0.5 mM hypoxanthine (Sigma-Aldrich) and incubated at 37 °C in an atmosphere of 1% O2, 5% CO2, and 94% N2. Cultures were monitored by Giemsa staining of methanol-fixed blood smears. Culture medium was replaced at least every 48 h, and parasitemia was maintained below 10% to ensure health of cultures. The GFP-DD reporter strain was kindly provided by Dr. Paul Gilson, Dr. Brendan Crabb, and Dr. Mauro F. Azevedo (Burnet Institute).
(§1) For standard assays of antiplasmodial activity, sorbitol-treated ring stage parasites were incubated with the drugs for 72 h and viability was assessed in the second cycle.[12] Drug pulse assays were performed as described previously.[47] For short pulse assays, tightly synchronized early ring stage parasites (1–3 h after invasion) at 0.2% hematocrit and 1–2% parasitemia were subjected to 3 h drug pulse at 37 °C and returned to culture until parasites reached trophozoite stage of the following cycle. Cells were then stained with 2 μM Syto-61 (Thermo Fisher Scientific), and their fluorescence was measured by flow cytometry (FACSCanto II cytometer; Becton Dickinson). Data were gated and analyzed using FCS Express software (version 3) to determine parasitemia of each sample. Viability represents the parasitemia normalized to untreated and “kill treated” controls, where “kill treated” refers to samples treated with 2 μM DHA for 48–72 h. Interactions between DHA and MPI-1 or MPI-4 against the K13 mutant (DHA resistant) Cam3.II P. falciparum strain, exposed to a 3 h pulsed treatment, were determined at 4 h after invasion as described previously.[12]

[2] = tested on: HCT116 cells; test: HCT116 cellular toxicity (CellTiter-Glo, 72 h); assay type: cell-based, human; conditions: for HCT116 LD50 (72 h): 72 h incubation, mean ± SEM or half range, 2–4 experiments; for HCT116 LD50 (72-h): supplement CSV
Method: HCT-116 and HepG2 cells were obtained from the American Type Culture Collection and maintained as recommended by the supplier. Cells were cultured in the ATCC-formulated McCoy’s 5A medium or DMEM (Life Technologies, CA), supplemented with fetal bovine serum to a final concentration of 9–10%, and incubated at 37 °C in an atmosphere of 95% air and 5% CO2. Cellular toxicity assays were performed using Promega’s CellTiter-Glo assay system. Varying concentrations of the test compounds in 5% DMSO/95% PBS were dispensed into a 384-well plate and cells added to each well. The plates were incubated at 37 °C for 72 h, and the CellTiter-Glo assay to assess cell viability was performed as described by the manufacturer (Promega).
For human cell line activity assays, cellular toxicity assays were performed as described previously.[23],[48]

[3] = tested on: HepG2 cells; test: HepG2 cellular toxicity (CellTiter-Glo, 72 h); assay type: cell-based, human; conditions: for HepG2 LD50 (72 h): 72 h incubation, mean ± SEM or half range, 2–4 experiments; for HepG2 LD50( 72-h): supplement CSV
[4] = tested on: P. falciparum Cam3.II^R539T; test: 3 h pulsed exposure viability assay, K13 mutant early rings; assay type: cell-based, Plasmodium falciparum; conditions: for Cam3.II^R539T LD50 (3 h): early ring (1–3 h p.i.), 3 h pulse, viability in next cycle, mean ± SEM, n=3; for Cam3.IIR539T LD50 (3-h): supplement CSV
Method: as §1

[5] = tested on: P. falciparum Cam3.II^Rev; test: 3 h pulsed exposure viability assay, K13 wild-type revertant early rings; assay type: cell-based, Plasmodium falciparum; conditions: for Cam3.II^Rev LD50 (3 h): early ring (1–3 h p.i.), 3 h pulse, viability in next cycle, mean ± SEM, n=3; for Cam3.IIRev LD50 (3-h): supplement CSV
Method: as §1

[6] = tested on: bortezomib-resistant 3D7 B1 line (clone B1a); test: 72 h viability assay, bortezomib-resistant B1 line / clone B1a; assay type: cell-based, Plasmodium falciparum; conditions: for bortezomib-resistant 3D7 B1 line LD50 (72 h): ring stage; for Bortezomib-resistant3D7 B1 LD50 (72-h): supplement CSV
Method: as §1
Prior to selection, an aliquot of the parental line was stocked as a reference for subsequent whole genome sequencing analysis. Several independent clones of P. falciparum 3D7 parasite line were cultured in Petri dishes exposed to increasing drug pressure for ∼30 weeks. Parasites were cloned by limiting dilution. For parasite extraction and genomic DNA isolation, cultures were scaled up to at least 4–5% parasitaemia, lysed in saponin, and genomic DNA was isolated using ISOLATE II Genomic DNA kit (Bioline). DNA libraries for each gDNA sample were prepared for sequencing using the Nextera XT kit as described previously.[50] Libraries were clustered and run on an Illumina HiSeq 2500 using the RapidRun mode, sequencing 100 base pairs in depth on either end. Paired-end reads were either aligned to the P. falciparum 3D7 reference genome (PlasmoDB version 13.0).

[7] = tested on: Pf20S proteasome β1, β2, β5 subunits; assay type: biochemical, P. falciparum
[8] = tested on: human constitutive proteasome and immunoproteasome catalytic subunits; test: BMV037 active site probe competition, purified human 20S proteasomes; assay type: biochemical; conditions: for subunit specificity by BMV037 probe labeling, human constitutive proteasome and immunoproteasome: compounds 1 h, probe 2 h
[9] = tested on: Pf20S proteasome subunits of bortezomib-resistant parasites; test: BMV037 active site probe competition, bortezomib-resistant parasites; assay type: biochemical, P. falciparum; conditions: compounds 1 h
Method: Figure 3 Active site probe analysis of the proteasome subunit specificity of the selected compounds in 3D7 parent and bortezomib-resistant parasites. Purified Pf20S proteasome from wild-type 3D7 (A) and bortezomib-resistant (C) parasites or wild-type 3D7 (B) and bortezomib-resistant (D) trophozoite-infected erythrocytes were treated with compounds for 1 h, and activity-based probe (BMV037) labeling was performed (postlysis for the trophozoite samples). Fluorescent gel scans reveal subunits that remain active after treatment.
P. falciparum culture, purified Pf20S proteasomes, human constitutive proteasomes, or immunoproteasomes (Boston Biochem) were incubated with test compounds at 37 °C for 1 h. Treated parasite lysates (10 μg), Pf20S proteasomes (80 nM), human constitutive proteasomes (20 nM), or immuno-20S proteasomes (20 nM) were labeled with BMV037 (10 μM) at 37 °C for 2 h. Samples were mixed with SDS loading buffer and heated at 95 °C for 5 min. Samples for P. falciparum and human immuno-20S were run on 4–12% Bis-Tris acrylamide gels using MES SDS running buffer (Thermo Fisher Scientific). Human constitutive 20S samples were run on a 10% Bis-Tris acrylamide gel using MOPS SDS running buffer (Thermo Fisher Scientific). Gels were imaged at the Cy5 channel on a Gel Doc XR+ Documentation System (Bio-Rad) or an Amersham Typhoon Trio imager (GE Healthcare Life Sciences).

[10] = compounds 1 h, purified Pf20S or infected erythrocytes

CC(=O)N1CCC[C@@H]1C(=O)N[C@@H](C)C(=O)N[C@@H](Cc1ccccc1)B(O)O [MPI-1]
Pf3D7 LD50 (72 h) ([1]; mean ± SEM, n=3): 0.12 ± 0.01 µM
Pf3D7 LD50 (72-h) [1]: 0.12 ± 0.01 µM
HCT116 LD50 (72 h) [2]: 0.79 ± 0.01 µM
HCT116 LD50 (72-h) [2]: 0.79 ± 0.01 µM
HepG2 LD50 (72 h) [3]: 6.7 ± 3.2 µM
HepG2 LD50( 72-h) [3]: 6.7 ± 3.2 µM
Cam3.II^R539T LD50 (3 h) [4]: 0.82 ± 0.06 µM
Cam3.IIR539T LD50 (3-h) [4]: 0.82 ± 0.06 µM
Cam3.II^Rev LD50 (3 h) [5]: 0.9 ± 0.1 µM
Cam3.IIRev LD50 (3-h) [5]: 0.9 ± 0.1 µM
bortezomib-resistant 3D7 B1 line LD50 (72 h) ([6]; mean ± SEM, n=3): 0.23 ± 0.04 µM
Bortezomib-resistant3D7 B1 LD50 (72-h) [6]: 0.23 ± 0.04 µM
subunit specificity by BMV037 probe labeling, wild-type 3D7 [7, 10]: preferentially inhibited binding of the probe to the β5 subunit
binding of the BMV037 probe to β5c after treatment ([8]; 10 μM): did not completely ablate binding of the probe to β5c
subunit specificity by BMV037 probe labeling, human constitutive proteasome and immunoproteasome [8]: preferentially targeted the β5 subunits
BMV037 labeling of the β5 active site in bortezomib-resistant parasites [9]: still able to prevent BMV037 labeling of the β5 active site

CC(C)C[C@H](NC(=O)[C@H](Cc1ccccc1)NC(=O)Cc1ccc(O)cc1)B(O)O [MPI-4]
Pf3D7 LD50 (72 h) ([1]; mean ± SEM, n=3): 0.061 ± 0.007 µM
Pf3D7 LD50 (72-h) [1]: 0.061 ± 0.007 µM
HCT116 LD50 (72 h) [2]: 0.025 ± 0.014 µM
HCT116 LD50 (72-h) [2]: 0.025 ± 0.014 µM
HepG2 LD50 (72 h) [3]: 0.04 ± 0.01 µM
HepG2 LD50( 72-h) [3]: 0.04 ± 0.01 µM
Cam3.II^R539T LD50 (3 h) [4]: 0.16 ± 0.01 µM
Cam3.IIR539T LD50 (3-h) [4]: 0.16 ± 0.01 µM
Cam3.II^Rev LD50 (3 h) [5]: 0.18 ± 0.02 µM
Cam3.IIRev LD50 (3-h) [5]: 0.18 ± 0.02 µM
cross-resistance of the bortezomib-resistant parasite line (B1) ([6]; growth inhibition, versus 3D7): retained sensitivity
bortezomib-resistant 3D7 B1 line LD50 (72 h) ([6]; mean ± SEM, n=3): 0.077 ± 0.001 µM
Bortezomib-resistant3D7 B1 LD50 (72-h) [6]: 0.077 ± 0.001 µM
subunit specificity by BMV037 probe labeling, wild-type 3D7 [7, 10]: inhibited both β2 and β5 activities
subunit specificity by BMV037 probe labeling, human constitutive proteasome and immunoproteasome [8]: preferential inhibition of the β1 and β5 subunits
BMV037 labeling of the β2 active site in bortezomib-resistant parasites [9]: completely inhibit BMV037 labeling of the β2 active site
BMV037 labeling of the β5 active site in bortezomib-resistant parasites [9]: did not prevent labeling of the β5 active site

CC(C)C[C@H](NC(=O)[C@H](Cc1ccccc1)NC(=O)c1cnccn1)B(O)O [bortezomib, reference compound]
IC50 ([1]; Plasmodium falciparum, 3D7, dose–response profiles, n = 3, read-out: 50% viability inhibitory concentration against 3D7 parasites): ~60 nM
LD50 (72 h), 3D7 parent ([1]; bortezomib, wild-type parent clone, mean ± SEM, n=3): 0.06 ± 0.01 µM
Pf3D7 LD50 (72 h) ([1]; mean ± SEM, n=3): 0.06 ± 0.01 µM
Pf3D7 LD50 (72-h) [1]: 0.06 ± 0.01 µM
HCT116 LD50 (72 h) [2]: 0.006 ± 0.001 µM
HCT116 LD50 (72-h) [2]: 0.006 ± 0.001 µM
HepG2 LD50 (72 h) [3]: 0.03 ± 0.02 µM
HepG2 LD50( 72-h) [3]: 0.03 ± 0.02 µM
Cam3.II^R539T LD50 (3 h) [4]: 0.12 ± 0.02 µM
Cam3.IIR539T LD50 (3-h) [4]: 0.12 ± 0.02 µM
Cam3.II^Rev LD50 (3 h) [5]: 0.18 ± 0.06 µM
Cam3.IIRev LD50 (3-h) [5]: 0.18 ± 0.06 µM
LD50 (72 h), 3D7 B1a ([6]; bortezomib, resistant clone B1a, mean ± SEM, n=3): 1.3 ± 0.1 µM
Bortezomib-resistant3D7 B1 LD50 (72-h) [6]: 1.3 ± 0.1 µM
subunit specificity by BMV037 probe labeling, wild-type 3D7 [7]: preferential inhibition of the β5 activity
subunit specificity by BMV037 probe labeling, human constitutive proteasome and immunoproteasome [8]: preferentially inhibits the β1 and β5 subunits
BMV037 competition profile in bortezomib-resistant parasites [9]: unable to prevent binding of the probe
